Data published in patent US8557783B2, “Phosphotetrahydropyran compounds for the treatment of wounds and fibrotic disorders” (Pharmaxis Pty Limited, priority 2009, dated 2013).

Legend:
[1] = target: T1, Cation-Independent Mannose 6-Phosphate Receptor (sCI-MPR) (Bos taurus, UniProt P08169); experiment: Antagonism of mannose 6-phosphate binding to the CI-M6P receptor (SPR, Biacore); set-up: species or system fetal calf; conditions: mean; SPR at 25° C., sCI-MPR binding to immobilized human β-glucuronidase
T1 construct: Samples of purified sCI-MPR purified from fetal calf serum; from tissue; host or cells: fetal calf serum
T1 sequence (P08169 45-2313 limits assumed): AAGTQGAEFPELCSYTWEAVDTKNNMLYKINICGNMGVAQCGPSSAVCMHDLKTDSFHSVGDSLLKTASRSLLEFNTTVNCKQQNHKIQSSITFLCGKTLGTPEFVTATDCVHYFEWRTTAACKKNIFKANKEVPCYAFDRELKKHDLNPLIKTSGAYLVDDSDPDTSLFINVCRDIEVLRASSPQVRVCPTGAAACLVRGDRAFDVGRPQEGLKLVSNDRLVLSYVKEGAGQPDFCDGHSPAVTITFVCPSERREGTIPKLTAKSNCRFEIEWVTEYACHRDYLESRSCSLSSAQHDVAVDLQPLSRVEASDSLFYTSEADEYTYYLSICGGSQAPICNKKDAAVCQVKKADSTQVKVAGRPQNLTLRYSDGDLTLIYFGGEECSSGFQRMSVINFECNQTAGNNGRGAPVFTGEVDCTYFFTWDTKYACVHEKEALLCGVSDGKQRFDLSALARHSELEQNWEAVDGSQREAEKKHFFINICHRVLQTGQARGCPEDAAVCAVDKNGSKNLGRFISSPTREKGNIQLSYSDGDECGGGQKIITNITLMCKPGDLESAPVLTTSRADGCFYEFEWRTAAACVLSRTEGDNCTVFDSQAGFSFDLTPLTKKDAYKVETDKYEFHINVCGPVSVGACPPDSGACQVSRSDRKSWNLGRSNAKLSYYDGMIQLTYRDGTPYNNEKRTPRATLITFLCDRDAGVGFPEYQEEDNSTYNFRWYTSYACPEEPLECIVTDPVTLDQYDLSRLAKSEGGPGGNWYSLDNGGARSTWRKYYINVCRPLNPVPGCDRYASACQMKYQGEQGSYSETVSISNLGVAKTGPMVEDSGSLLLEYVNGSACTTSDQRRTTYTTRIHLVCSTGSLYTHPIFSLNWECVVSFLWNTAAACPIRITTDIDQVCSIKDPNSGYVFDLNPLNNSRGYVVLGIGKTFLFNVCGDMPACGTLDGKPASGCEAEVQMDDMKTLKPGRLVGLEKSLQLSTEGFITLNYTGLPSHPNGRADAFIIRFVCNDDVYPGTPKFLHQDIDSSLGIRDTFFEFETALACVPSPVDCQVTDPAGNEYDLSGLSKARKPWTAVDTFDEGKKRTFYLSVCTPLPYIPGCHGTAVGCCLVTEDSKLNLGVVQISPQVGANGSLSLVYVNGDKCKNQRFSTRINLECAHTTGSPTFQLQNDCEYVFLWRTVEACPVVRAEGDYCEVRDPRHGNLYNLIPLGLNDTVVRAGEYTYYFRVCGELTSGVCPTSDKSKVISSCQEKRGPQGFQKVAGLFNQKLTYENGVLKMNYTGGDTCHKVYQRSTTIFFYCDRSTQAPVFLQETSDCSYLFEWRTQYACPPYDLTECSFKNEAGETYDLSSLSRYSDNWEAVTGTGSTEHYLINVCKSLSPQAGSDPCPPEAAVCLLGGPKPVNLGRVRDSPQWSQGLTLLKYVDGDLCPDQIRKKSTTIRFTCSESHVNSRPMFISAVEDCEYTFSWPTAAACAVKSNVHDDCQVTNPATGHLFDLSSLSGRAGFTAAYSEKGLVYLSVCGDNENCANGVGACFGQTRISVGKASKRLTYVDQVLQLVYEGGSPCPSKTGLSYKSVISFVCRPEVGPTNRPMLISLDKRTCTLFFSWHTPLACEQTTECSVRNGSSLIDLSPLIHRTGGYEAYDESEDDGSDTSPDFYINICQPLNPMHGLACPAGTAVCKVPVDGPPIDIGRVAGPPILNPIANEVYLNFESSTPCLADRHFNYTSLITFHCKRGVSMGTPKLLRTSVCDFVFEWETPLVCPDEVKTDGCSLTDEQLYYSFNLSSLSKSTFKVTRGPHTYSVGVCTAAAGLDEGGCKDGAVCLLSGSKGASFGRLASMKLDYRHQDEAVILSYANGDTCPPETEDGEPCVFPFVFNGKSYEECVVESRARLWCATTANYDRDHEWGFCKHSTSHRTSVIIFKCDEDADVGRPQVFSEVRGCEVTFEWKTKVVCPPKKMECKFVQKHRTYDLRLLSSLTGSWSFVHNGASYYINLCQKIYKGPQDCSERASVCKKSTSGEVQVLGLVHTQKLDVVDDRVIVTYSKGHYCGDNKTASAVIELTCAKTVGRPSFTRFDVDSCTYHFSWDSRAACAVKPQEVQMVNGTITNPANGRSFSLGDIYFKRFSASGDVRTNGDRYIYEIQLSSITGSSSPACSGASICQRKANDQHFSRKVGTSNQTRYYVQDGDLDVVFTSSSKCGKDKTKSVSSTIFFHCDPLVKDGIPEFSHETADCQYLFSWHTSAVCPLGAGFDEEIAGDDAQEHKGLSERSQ
Description: All surface plasmon resonance (SPR) measurements were performed at 25° C. using a Biacore 3000 instrument (BIAcore, Piscataway, N.J.). CM5 research grade sensor chips, surfactant P20 and amine coupling kits were also obtained from BIAcore. Purified human β-glucuronidase was immobilized on CM5 sensor chips following activation of the surface using 1-ethyl-3-(3-dimethylaminopropyl)carbodiimide and N-hydroxysuccinimide as recommended by the manufacturer. Briefly, the proteins were injected onto the activated dextran surface at a concentration of 10-20 μg/mL in 10 mM sodium acetate buffer, pH 4.5 using 10 mM HEPES pH 7.5, 150 mM NaCl and 0.005% (v/v) P20 as the running buffer. After coupling, unreacted N-hydroxysuccinimide ester groups were blocked with ethanolamine. The reference surface was treated in the same way except that protein was omitted. […] The response at equilibrium for each concentration of protein was determined by averaging the response over a 10 sec period within the steady state region of the sensorgram using the BIAevaluation software package (version 4.0.1). […]

[2] = system: LPS-induced lung inflammation, C57BI/6 mice; experiment: Acute LPS-induced lung inflammation in the mouse; type: in vivo; conditions: for total number of inflammatory cells in BAL fluid versus LPS control group: 15 min prior to LPS, 3 hours after LPS
Description: Age-matched germ-free male C57BI/6 mice (25.30±0.39 g; 6-7 week-old) were transiently anaesthetized with a mixture of isoflurane and oxygen. The vehicle-treated group received intravenous injection (iv) of saline 15 min prior to intra-tracheal instillation (i.t.) of lipopolysaccharide (LPS, 3 mg/kg). Another set of animals received i.v. injection of dexamethasone at 1 mg/kg or 2.5 mg/kg 1 hour prior to LPS. The phosphotetrahydropyran test compound was administered to the animals at 5, 15 and 30 mg/kg (iv) 15 min prior to LPS instillation. A separate group of mice was used as sham (saline/PBS) and was treated with i.v. injection of saline and i.t. injection of PBS (phosphate buffered saline).
Three hours after the LPS administration, animals were anaesthetized with urethane (25%, […] body weight). A blood sample was collected by cardiac puncture (≅1 mL) and the animals were sacrificed by cervical dislocation. The trachea was cannulated and the lungs were lavaged with 2 mL of PBS containing EDTA (1 mM). The lavaged fluid was harvested by gentle injections and aspirations four times with 0.5 mL each, and centrifuged. The total cell count was determined on a fresh fluid specimen with Turk solution using a Neubauer chamber. Differential cell counts were determined using Cytospin technique. Aliquots of the bronchoalveolar lavage (BAL) supernatants were stored without further treatment at −80° C.
Slices of each pulmonary lobe were immediately removed from the animal, weighed and either frozen in liquid nitrogen for myeloperoxidase (MPO) assay or placed in the oven for lung oedema evaluation. Determination of MPO activity was used as an index of leukocyte accumulation, where one unit of MPO activity was defined as that degrading 1 μmol hydrogen peroxide/min at 25° C. by the formula MPO (U/g)=Vmax/s×60/0.0113/0.5. Data were presented as MPO activity expressed as U/g wet tissue. To determine pulmonary oedema, the left pulmonary lobes were removed, weighed and dried at 60° C. for 48 h for wet to dry weight ratio measurements.

[3] = system: thioglycolate-induced leukocyte migration in the peritoneal cavity, C57BI/6 mice; experiment: Thioglycolate-induced peritonitis in the mouse; type: in vivo; conditions: for peritoneal total cell number in untreated mice compared with treated mice: −15 min, 3 h
Description: Germ-free male C57BI/6 mice, weighing in the target range of 21.30±0.39 g (6-7 week-old) were anaesthetised with halothane and then received by intravenous route (iv) increasing doses of the phosphotetrahydropyran test compound (5 or 15 mg/kg, −15 min), dexamethasone (1 mg/kg, −60 min) or the respective vehicle (saline 0.9%, pH 7.4). Peritoneal inflammation was induced by i.p. injection of Brewer's thioglycolate. Thioglycolate was prepared freshly (3%, w/v) in sterile saline, and 1.5 mL was injected into the intraperitoneum cavity (ip). Following 3 h treatment, animals were killed (under anesthesia) by cervical dislocation, and cells were recovered by peritoneal lavage using 5 mL of ice-cold PBS. The lavage contents were immediately stored on ice. Peritoneal exudate cells (PEC) were further diluted in 5 mL of ice-cold PBS. The total cell count was determined on a Neubauer chamber with Turk solution, whereas the differential cell counts were conducted on cytospin preparations. Peritoneal lavage was carefully confirmed to be negative for erythrocytes by microscopy to exclude the possibility that leukocyte accumulation in the peritoneal cavity was due to microbleeding, which may occur during animal preparation.
Data are expressed as Mean (±SEM) from n individual animals. Statistical analysis of data was carried out using Software Graphpad prism v4. Comparative data were analysed using ANOVA followed by Dunnett's post test and ANOVA (unpaired Student's T tests). Statistical P values less than 0.05 were taken as significant.
The results of polymorphonuclear (PMN) (A), mononuclear (MN) recruitment (B) and total cells (C) are shown as number of cells per cavity. The results are from a representative experiment with 11 mice. Significant p values for each time point are shown (Dunnett's post test and unpaired T-test).

[4] = Determination of bioavailability in the rat; type: in vivo; conditions: oral, rats, gavage 10 mg/kg versus intravenously 1 mg/kg, plasma LC-MS
Description: The phosphotetrahydropyran test compound (Formula 1; n=1 and R=2,4-dimethylphenyl) was administered to rats by gavage at 10 mg/kg or intravenously at 1 mg/kg). Blood samples were taken at 15 and 30 min and at 1, 2, 3, 4, 8, 12 and 24 hours. Plasma samples were prepared by the addition of 50% acetonitrile/water (20 μL). Protein precipitation was carried out by the addition of trichloroacetic acid (20% in water, 40 μL), vortexing (20 s) and after storing at 4° C. for 60 minutes, centrifugation (10,000 rpm) in a microcentrifuge for 5 min. The supernatant was subsequently separated and 25 μL injected directly onto the column for LC-MS analysis.

[5] = system: New Zealand White rabbits, filtering bleb; experiment: Rabbit model of experimental glaucoma filtering surgery; type: in vivo; conditions: intraoperative sponge 3 minutes; PXS-25 40 mg/mL, MMC 0.4 mg/mL
Description: New Zealand White rabbits (18) were subjected to a modified glaucoma filtering surgery in the left eye. The animals received either intraoperative PXS-25 at a concentration of 40 mg/mL (Group 1), intraoperative Mitomycin C (MMC) at a concentration of 0.4 mg/mL (Group 2), or intraoperative test compound and Mitomycin C (MMC) (Group 3).
Filtration surgery was performed on the left eye only. MMC, test compound (Formula 1) or the combination were delivered with a large sponge measuring 8×10 mm (dry size) cut from a Weck-Cel prior to cutting the flap and sclerostomy. The sponge pieces were placed between the conjunctiva and sclera over the determined filtration site for 3 minutes. The area was then thoroughly irrigated with 30 mL of physiologic saline. The animals were reviewed on the first day after surgery, and then weekly until bleb failure. The study was terminated after the 8 week. Fluorescein tracer studies was performed as follows. Sodium fluorescein was injected into the anterior chamber and the drainage pathway using a slit lamp based digital video camera system was recorded. The animals were sacrificed and tissue sections were prepared for immunohistochemically staining for signs of scarring and inflammation.

Ki [1] [µM]	bioavailability [4] [%]	SMILES	total number of inflammatory cells in BAL fluid versus LPS control group ([2]; 5 mg/kg iv)	total number of inflammatory cells in BAL fluid versus LPS control group ([2]; 15 mg/kg iv)	total number of inflammatory cells in BAL fluid versus LPS control group ([2]; 30 mg/kg iv)	decrease of neutrophils number in BAL fluid compared to vehicle (saline)-control group ([2]; iv pre-treatment 15 min prior to LPS, P<0.05) [%]	peritoneal total cell number in untreated mice compared with treated mice ([3]; 5 mg/kg iv)	peritoneal total cell number in untreated mice compared with treated mice ([3]; 15 mg/kg iv)	anti-inflammatory actions (leukocyte migration into the peritoneal cavity) ([3]; iv pre-treatment, 3 h after thioglycolate)	tissue surrounding the site of surgical intervention / bleb [5]
7.9	7.7	Cc1ccc(COC2O[C@H](CCP(=O)(O)O)[C@@H](O)[C@H](O)[C@@H]2O)c(C)c1 (some centres unmarked) [Formula 1; n=1 and R=2,4-dimethylphenyl]	not significantly different	significant inhibition	not significantly different	86.7	markedly higher	markedly higher	Dose-dependent anti-inflammatory actions	
		CO[C@@]12[C@H](COC(N)=O)C3=C(C(=O)C(C)=C(N)C3=O)N1C[C@@H]1N[C@@H]12 [Mitomycin C]								very visible dead tissue surrounding the bleb
19		O=C[C@@H](O)[C@@H](O)[C@H](O)[C@H](O)COP(=O)(O)O [mannose-6-phosphate, reference compound]								
